Experiments:
Assay type in all cases: cell-based
[1] = test system: HeLa cells; assay: Cell viability / cell- and photo-toxicity under prolonged imaging; settings: 5 μM
Method: In the experiments described above, the cells were exposed to Cer-TCO/SiR-Tz for minutes, a relatively short time period. To evaluate whether this Golgi labeling strategy would result in cell- or photo-toxicity over prolonged periods (such as hours), HeLa cells were treated with varying concentrations of either Cer-TCO/SiR-Tz or BODIPY® FL C5-ceramide (BODIPY-Cer) (Marks, et al., 2008, Cell Biol. 130:819-832; Pagano, et al., 1991, J. Cell Biol. 113:1267-1279), a commercially available fluorescent dye that labels the Golgi. […]
Hela cells stably expressing GalNAcT2-GFP were cultured on 35 mm glass bottom dishes subsequently labeled with various concentrations of TCO-Cer (0, 1, 2, and 5 μM) and SiR-Tz (0, 1, and 2 μM) following the protocol described elsewhere herein. […] After equilibration for 30 min, phase contrast images were taken at an interval of 20 min and fluorescence images at an interval of 10 min over 400-750 min. […] The number of physically intact cells was counted at each time point. For each condition at least 110 cells were counted/observed in the initial images (n0 (0 μM TCO-Cer, 0 μM SiR-Tz)=123 cells, n0 (2 μM TCO-Cer, 2 μM SiR-Tz)=113 cells, n0 (1 μM TCO-Cer, 1 μM SiR-Tz)=130 cells, n0 (5 μM TCO-Cer, 1 μM SiR-Tz)=120 cells, n0 (5 μM BODIPY-Cer)=123 cells).

[2] = test system: HeLa cells (Golgi label); assay: Photostability in sequential 3D spinning disk confocal imaging; settings: live cells; spinning disk confocal
Method: The relative photostability of Cer-TCO/SiR-Tz to both BODIPY-Cer and the SiR labeled SNAP-tag Golgi protein Rab6 was compared. The latter is the product of reaction between Rab6-SNAP and a benzyl guanine derivative of SiR (SiR-BG) (Lukinavicius, et al., 2013, Nature Chem. 5:132-139) and thus contains the same near-IR dye as SiR-Tz (FIGS. 5A-5B). HeLa cells were treated with Cer-TCO/SiR-Tz or BODIPY-Cer, while Rab6-SNAP-expressing cells were treated with SiR-BG. The cells were then examined in sequential 3D images using spinning disk confocal microscopy; 3D visualization limited fluorescence fluctuations due to axial sample drift. In each case, 3D “stacks” of 22 optical sections were acquired in series up to 500 times in live or fixed cells (FIGS. 5A-5B). In live cells, even under optimal imaging conditions the BODIPY-Cer fluorescent signal decreased by 50% after fewer than 15 stacks. In striking contrast, the fluorescent signal of cells treated with 2 μM Cer-TCO followed by 2 μM SiR-Tz decreased by only 10% after more than 120 3D stacks had been acquired. Consistent with a lower density of Rab6-SNAP protein in the Golgi, the signal from Rab6-SNAP-SiR decayed at an intermediate rate, decreasing by 50% after about 50 3D stacks. […] After 500 3D stacks the fluorescent signal of Cer-SiR decreased 16% whereas that of Rab6-SNAP-SiR decreased by 84%. […]

[3] = test system: HeLa cells that stably expressed GalNAcT2-GFP; assay: FRAP analysis of GalNAcT2-GFP mobility within the Golgi; settings: recovery over 490 seconds, Cer-TCO alone or 5 μM Cer-TCO and 1 μM SiR-Tz, versus untreated
Source text: To further test whether the combination of Cer-TCO and SiRTz affected traffic within the Golgi, HeLa cells that stably expressed the GFP-tagged transmembrane Golgi enzyme GalNAcT2 (Storrie, et al., 1998, J. Cell Biol. 143:1505-1521) were used and its intra-organelle mobility was monitored using fluorescence recovery after photobleaching (FRAP) experiments (FIG. 4A). A small rectangular area of the Golgi (about 2.2 microns wide) was photobleached at 488 nm and the fluorescence recovery was monitored over 490 seconds (FIG. 4B). Both the t1/2 of recovery and mobile fraction were unchanged when the cells were treated with Cer-TCO alone or the combination of 5 μM Cer-TCO and 1 μM SiR-Tz (FIG. 4C). Thus, treatment of cells with Cer-TCO alone or Cer-TCO and SiR-Tz led to no detectable change in the diffusion of GalNAcT2-GFP within the Golgi apparatus.
The stable cell line was cultured on a 35 mm glass bottom dish. In the negative control (no treatment), the medium was replaced by DMEM ph(−). […] The photobleaching of the FRAP experiment was performed with a fluorescence recovery after photobleaching unit of the microscope. […] Quantification was performed with ImageJ. The fluorescence intensity in the unbleached region of the cytosol was subtracted from that in the bleached region of Golgi. […]

[4] = test system: HeLa cells that stably expressed GalNAcT2-GFP (Golgi); assay: Two-step Golgi labeling and colocalization with GalNAcT2-GFP by confocal microscopy
Method: To evaluate whether the Golgi could be selectively imaged using Cer-SiR, HeLa cells that stably expressed a protein fusion composed of GFP and N-acetyl-galactosaminyltransferase 2 (GalNAcT2), a transmembrane protein that localizes to the Golgi with high specificity (Storrie, et al., 1998, J. Cell Biol. 143:1505-1521), were used. These cells were treated with 2 μM Cer-TCO (5 min), maintained at 19.5° C. for 60 min to localize the lipid to the Golgi, treated subsequently with 2 μM SiR-Tz (30 min), and visualized using confocal microscopy (FIG. 2A).
The GalNAcT2-GFP and Cer-SiR signals colocalized with a Pearson's coefficient of 0.50±0.02; the corresponding value for the signals from GalNAcT2-GFP and SiR-Tz was 0.08±0.01 (p<0.0001) (FIG. 10), supporting that Cer-TCO effectively localized to the Golgi and reacted efficiently with SiR-Tz.
Stably or transiently transfected HeLa cells were cultured on 35 mm glass bottom dishes (Mattek). To label with Cer-TCO/SiR-Tz, the cells were incubated in PBS containing 1% casein, 0.2% Pluronic F-127 and 2 or 5 μM TCO-Cer for 5 min at 37° C. After washing three times with DMEM ph(−), the cells were incubated for 1 h at 19.5° C. in DMEM ph(−). During this incubation the dish was sealed with parafilm to protect the cells from the used water bath. Subsequently, the cells were washed three times and PBS containing 1% casein and 2 or 1 μM SiR-Tz, respectively, was added to the dish. The dish was sealed with parafilm again and incubated for 30 min at 19.5° C. After washing three times with DMEM ph(−), the cells were observed under a confocal microscope. Fixed samples were prepared similarly with an additional treatment with 4% PFA for 10 min at room temperature after first temperature block. […]
The Pearson correlation between the SiR and the GFP signal within cells was determined using the correlation measurement tool in Volocity. […] For cells stably expressing GalNAcT2-GFP and treated with SiR-Tz and Cer-TCO 13 samples (cells) were analyzed and for cells only treated with SiR-Tz 8 samples were analyzed. […]

## CCCCCCCCCCCCC/C=C/[C@@H](O)[C@H](CO)NC(=O)CCCCC1=[N+]2C(=Cc3c(C)cc(C)n3[B-]2(F)F)C=C1 [BODIPY-Cer, BODIPY® FL C5-ceramide, reference compound]
[1]
  Time after which cell rounding and de-attachment was induced: about 6 hours
[2]
  Number of 3D stacks after which fluorescent signal decreased by 50%: < 15 stacks

## CCCCCCCCCCCCC/C=C/[C@@H](O)[C@H](CO)NC(=O)CCCCCNC(=O)OC1CC/C=C/CCC1 (stereo partly drawn) [Cer-TCO, (E)-cyclooct-4-en-1-yl (6-(((2S,3R,E)-1,3-dihydroxyoctadec-4-en-2-yl)amino)-6-oxohexyl)carbamate]
[3]
  Mobile fraction (FRAP): unchanged

## CN(C)c1ccc2c(c1)[Si](C)(C)C1=CC(=[N+](C)C)C=CC1=C2c1cc(C(=O)NCc2ccc(-c3nncnn3)cc2)ccc1C(=O)[O-] [SiR-Tz, 4-((4-(1,2,4,5-tetrazin-3-yl)benzyl)carbamoyl)-2-(7-(dimethylamino)-3-(dimethyliminio)-5,5-dimethyl-3,5-dihydrodibenzo[b,e]silin-10-yl)benzoate]
[4]; 2 μM Cer-TCO then 2 μM SiR-Tz, or SiR-Tz only, Golgi area, confocal
  Pearson's coefficient of colocalization with GalNAcT2-GFP signal: 0.08±0.01
[4]; live HeLa GalNAcT2-GFP cells, Cer-TCO followed by SiR-Tz, or SiR-Tz alone
  Labeling of cells / Golgi region: did not label the cells
